# Tested on: Staphylococcus aureus
# Assay: Antimicrobial activity against Staphylococcus aureus Smith by micro broth dilution or agar based method
# Format: functional
# Details: Staphylococcus aureus, Smith; read-out: MIC
row,SMILES,MIC
1,COc1cc2nccc(CCC34CCC(NCc5ccc6c(n5)NC(=O)CO6)(CC3)CO4)c2nc1OC,2 µg/mL
2,COc1nc2c(CCC34CCC(NCc5ccc6c(n5)NC(=O)CO6)(CC3)CO4)c(F)cnc2cc1F,0.031 µg/mL
3,COc1ccc2ncc(Cl)c(CCC34CCC(NCc5ccc6c(n5)NC(=O)CO6)(CC3)CO4)c2n1,0.008 µg/mL
4,COc1nc2c(CCC34CCC(NCc5ccc6c(n5)NC(=O)CO6)(CC3)CO4)ccnc2cc1Cl,0.5 µg/mL
5,COc1cc(OC)c2nccc(CCC34CCC(NCc5ccc6c(n5)NC(=O)CO6)(CC3)CO4)c2n1,0.5 µg/mL
6,COc1ccc2ncc(CO)c(CCC34CCC(NCc5ccc6c(n5)NC(=O)CO6)(CC3)CO4)c2n1,0.5 µg/mL
7,COc1ccc2ncc(S(C)(=O)=O)c(CCC34CCC(NCc5ccc6c(n5)NC(=O)CO6)(CC3)CO4)c2n1,0.25 µg/mL
8,COc1ccc2ncc(C(F)F)c(CCC34CCC(NCc5ccc6c(n5)NC(=O)CO6)(CC3)CO4)c2n1,0.03 µg/mL
9,CN(C)c1nc2c(CCC34CCC(NCc5ccc6c(n5)NC(=O)CO6)(CC3)CO4)ccnc2cc1F,1 µg/mL

# Tested on: Pseudomonas aeruginosa
# Assay: Antimicrobial activity against Pseudomonas aeruginosa PAO1 by micro broth dilution or agar based method
# Format: functional
# Details: Pseudomonas aeruginosa, PAO1; read-out: MIC
row,SMILES,MIC
1,COc1cc2nccc(CCC34CCC(NCc5ccc6c(n5)NC(=O)CO6)(CC3)CO4)c2nc1OC,8 µg/mL
2,COc1nc2c(CCC34CCC(NCc5ccc6c(n5)NC(=O)CO6)(CC3)CO4)c(F)cnc2cc1F,8 µg/mL
3,COc1ccc2ncc(Cl)c(CCC34CCC(NCc5ccc6c(n5)NC(=O)CO6)(CC3)CO4)c2n1,8 µg/mL
4,COc1nc2c(CCC34CCC(NCc5ccc6c(n5)NC(=O)CO6)(CC3)CO4)ccnc2cc1Cl,32 µg/mL
5,COc1cc(OC)c2nccc(CCC34CCC(NCc5ccc6c(n5)NC(=O)CO6)(CC3)CO4)c2n1,64 µg/mL
6,COc1ccc2ncc(CO)c(CCC34CCC(NCc5ccc6c(n5)NC(=O)CO6)(CC3)CO4)c2n1,32 µg/mL
7,COc1ccc2ncc(S(C)(=O)=O)c(CCC34CCC(NCc5ccc6c(n5)NC(=O)CO6)(CC3)CO4)c2n1,32 µg/mL
8,COc1ccc2ncc(C(F)F)c(CCC34CCC(NCc5ccc6c(n5)NC(=O)CO6)(CC3)CO4)c2n1,16 µg/mL
9,CN(C)c1nc2c(CCC34CCC(NCc5ccc6c(n5)NC(=O)CO6)(CC3)CO4)ccnc2cc1F,16 µg/mL

# Tested on: Staphylococcus aureus
# Assay: Antimicrobial activity against methicillin-resistant Staphylococcus aureus OIT971 by micro broth dilution or agar based method
# Format: functional
# Details: not given
row,SMILES,MIC
1,COc1cc2nccc(CCC34CCC(NCc5ccc6c(n5)NC(=O)CO6)(CC3)CO4)c2nc1OC,1 µg/mL
2,COc1nc2c(CCC34CCC(NCc5ccc6c(n5)NC(=O)CO6)(CC3)CO4)c(F)cnc2cc1F,0.016 µg/mL
3,COc1ccc2ncc(Cl)c(CCC34CCC(NCc5ccc6c(n5)NC(=O)CO6)(CC3)CO4)c2n1,0.008 µg/mL
4,COc1nc2c(CCC34CCC(NCc5ccc6c(n5)NC(=O)CO6)(CC3)CO4)ccnc2cc1Cl,0.25 µg/mL
5,COc1cc(OC)c2nccc(CCC34CCC(NCc5ccc6c(n5)NC(=O)CO6)(CC3)CO4)c2n1,0.25 µg/mL
6,CN(C)c1nc2c(CCC34CCC(NCc5ccc6c(n5)NC(=O)CO6)(CC3)CO4)ccnc2cc1F,1 µg/mL

# Tested on: Enterococcus faecium
# Assay: Antimicrobial activity against VanA expressing vancomycin-resistant Enterococcus faecium by micro broth dilution or agar based method
# Format: functional
# Details: Enterococcus faecium; read-out: MIC
row,SMILES,MIC
1,COc1cc2nccc(CCC34CCC(NCc5ccc6c(n5)NC(=O)CO6)(CC3)CO4)c2nc1OC,8 µg/mL
2,COc1nc2c(CCC34CCC(NCc5ccc6c(n5)NC(=O)CO6)(CC3)CO4)c(F)cnc2cc1F,2 µg/mL
3,COc1ccc2ncc(Cl)c(CCC34CCC(NCc5ccc6c(n5)NC(=O)CO6)(CC3)CO4)c2n1,1 µg/mL
4,COc1nc2c(CCC34CCC(NCc5ccc6c(n5)NC(=O)CO6)(CC3)CO4)ccnc2cc1Cl,16 µg/mL
5,COc1cc(OC)c2nccc(CCC34CCC(NCc5ccc6c(n5)NC(=O)CO6)(CC3)CO4)c2n1,8 µg/mL
6,COc1ccc2ncc(CO)c(CCC34CCC(NCc5ccc6c(n5)NC(=O)CO6)(CC3)CO4)c2n1,4 µg/mL
7,COc1ccc2ncc(S(C)(=O)=O)c(CCC34CCC(NCc5ccc6c(n5)NC(=O)CO6)(CC3)CO4)c2n1,4 µg/mL
8,COc1ccc2ncc(C(F)F)c(CCC34CCC(NCc5ccc6c(n5)NC(=O)CO6)(CC3)CO4)c2n1,1 µg/mL
9,CN(C)c1nc2c(CCC34CCC(NCc5ccc6c(n5)NC(=O)CO6)(CC3)CO4)ccnc2cc1F,16 µg/mL

# Tested on: Escherichia coli
# Assay: Antimicrobial activity against Escherichia coli ATCC 25922 by micro broth dilution or agar based method
# Format: functional
# Details: Escherichia coli, ATCC 25922; read-out: MIC
row,SMILES,MIC
1,COc1cc2nccc(CCC34CCC(NCc5ccc6c(n5)NC(=O)CO6)(CC3)CO4)c2nc1OC,8 µg/mL
2,COc1nc2c(CCC34CCC(NCc5ccc6c(n5)NC(=O)CO6)(CC3)CO4)c(F)cnc2cc1F,4 µg/mL
3,COc1ccc2ncc(Cl)c(CCC34CCC(NCc5ccc6c(n5)NC(=O)CO6)(CC3)CO4)c2n1,2 µg/mL
4,COc1nc2c(CCC34CCC(NCc5ccc6c(n5)NC(=O)CO6)(CC3)CO4)ccnc2cc1Cl,32 µg/mL
5,COc1cc(OC)c2nccc(CCC34CCC(NCc5ccc6c(n5)NC(=O)CO6)(CC3)CO4)c2n1,32 µg/mL
6,COc1ccc2ncc(CO)c(CCC34CCC(NCc5ccc6c(n5)NC(=O)CO6)(CC3)CO4)c2n1,16 µg/mL
7,COc1ccc2ncc(S(C)(=O)=O)c(CCC34CCC(NCc5ccc6c(n5)NC(=O)CO6)(CC3)CO4)c2n1,16 µg/mL
8,COc1ccc2ncc(C(F)F)c(CCC34CCC(NCc5ccc6c(n5)NC(=O)CO6)(CC3)CO4)c2n1,4 µg/mL
9,CN(C)c1nc2c(CCC34CCC(NCc5ccc6c(n5)NC(=O)CO6)(CC3)CO4)ccnc2cc1F,16 µg/mL

# Tested on: Streptococcus pneumoniae
# Assay: Antimicrobial activity against Streptococcus pneumoniae IID553 by micro broth dilution or agar based method
# Format: functional
# Details: Streptococcus pneumoniae, IID553; read-out: MIC
row,SMILES,MIC
1,COc1cc2nccc(CCC34CCC(NCc5ccc6c(n5)NC(=O)CO6)(CC3)CO4)c2nc1OC,8 µg/mL
2,COc1nc2c(CCC34CCC(NCc5ccc6c(n5)NC(=O)CO6)(CC3)CO4)c(F)cnc2cc1F,0.25 µg/mL
3,COc1ccc2ncc(Cl)c(CCC34CCC(NCc5ccc6c(n5)NC(=O)CO6)(CC3)CO4)c2n1,0.25 µg/mL
4,COc1nc2c(CCC34CCC(NCc5ccc6c(n5)NC(=O)CO6)(CC3)CO4)ccnc2cc1Cl,8 µg/mL
5,COc1cc(OC)c2nccc(CCC34CCC(NCc5ccc6c(n5)NC(=O)CO6)(CC3)CO4)c2n1,8 µg/mL
6,COc1ccc2ncc(CO)c(CCC34CCC(NCc5ccc6c(n5)NC(=O)CO6)(CC3)CO4)c2n1,0.5 µg/mL
7,COc1ccc2ncc(S(C)(=O)=O)c(CCC34CCC(NCc5ccc6c(n5)NC(=O)CO6)(CC3)CO4)c2n1,0.5 µg/mL
8,COc1ccc2ncc(C(F)F)c(CCC34CCC(NCc5ccc6c(n5)NC(=O)CO6)(CC3)CO4)c2n1,0.12 µg/mL
9,CN(C)c1nc2c(CCC34CCC(NCc5ccc6c(n5)NC(=O)CO6)(CC3)CO4)ccnc2cc1F,16 µg/mL

# Tested on: Acinetobacter baumannii
# Assay: Antimicrobial activity against Acinetobacter baumannii IID876 by micro broth dilution or agar based method
# Format: functional
# Details: Acinetobacter baumannii, IID876; read-out: MIC
row,SMILES,MIC
1,COc1cc2nccc(CCC34CCC(NCc5ccc6c(n5)NC(=O)CO6)(CC3)CO4)c2nc1OC,8 µg/mL
2,COc1nc2c(CCC34CCC(NCc5ccc6c(n5)NC(=O)CO6)(CC3)CO4)c(F)cnc2cc1F,1 µg/mL
3,COc1ccc2ncc(Cl)c(CCC34CCC(NCc5ccc6c(n5)NC(=O)CO6)(CC3)CO4)c2n1,1 µg/mL
4,COc1nc2c(CCC34CCC(NCc5ccc6c(n5)NC(=O)CO6)(CC3)CO4)ccnc2cc1Cl,32 µg/mL
5,COc1cc(OC)c2nccc(CCC34CCC(NCc5ccc6c(n5)NC(=O)CO6)(CC3)CO4)c2n1,8 µg/mL
6,COc1ccc2ncc(CO)c(CCC34CCC(NCc5ccc6c(n5)NC(=O)CO6)(CC3)CO4)c2n1,8 µg/mL
7,COc1ccc2ncc(S(C)(=O)=O)c(CCC34CCC(NCc5ccc6c(n5)NC(=O)CO6)(CC3)CO4)c2n1,8 µg/mL
8,COc1ccc2ncc(C(F)F)c(CCC34CCC(NCc5ccc6c(n5)NC(=O)CO6)(CC3)CO4)c2n1,2 µg/mL
9,CN(C)c1nc2c(CCC34CCC(NCc5ccc6c(n5)NC(=O)CO6)(CC3)CO4)ccnc2cc1F,16 µg/mL
